Counter-ions that a name gives are not always drawn. Like-named read-outs stand apart in the source and are kept apart here.
Tested on: PC-3-KQ cells
Assay: 3D spheroid invasion assay and screening of FDA-approved drugs
Type: cell-based, human
Design: activity: dose or concentration left out as unconfirmed
Description: The invasion assay was performed as previously described. […] The plates were then centrifuged at 320 g for 4 min to cluster cells in the bottom of wells and incubated for 3 days. On the fourth day, 40 μL medium was removed from each well, 40 μL of the matrigel-medium mixture was added to each well, and cells were cultured for another 3 days. […] At the end of the incubation, images were taken using a phase contrast microscope (Eclipse Ti2, Nikon, Tokyo, Japan) with 10× object lenses, and the total area of cells and the core sphere area of cells (Fig. 1a) were measured using the Image J software. The invading area was calculated using the following formula: invasion area = total area of cells – core sphere area.
For drug screening, drugs were added to the matrigel-medium mixture when replacing the culture medium on day 4. For the initial round of screening, a final concentration of 10 μM was used for all drugs. Multiple drug concentrations were used for the second round of screening, including 0, 0.001, 0.01, 0.1, 1, and 10 μM. Duplicate wells were repeated for each concentration.

[1] = 0.01 μM (first column so headed), secondary screening of 87 hit compounds (Table S1), compared to vehicle control
[2] = 0.01 μM (first column so headed), third screening of 25 hit compounds (Table S2), compared to vehicle control
[3] = 0.01 μM (second column so headed), secondary screening of 87 hit compounds (Table S1), compared to vehicle control
[4] = 0.01 μM (second column so headed), third screening of 25 hit compounds (Table S2), compared to vehicle control
[5] = 0.1 μM, secondary screening of 87 hit compounds (Table S1), compared to vehicle control
[6] = 0.1 μM, third screening of 25 hit compounds (Table S2), compared to vehicle control
[7] = 1 μM, secondary screening of 87 hit compounds (Table S1), compared to vehicle control
[8] = 1 μM, third screening of 25 hit compounds (Table S2), compared to vehicle control
[9] = 10 μM, secondary screening of 87 hit compounds (Table S1), compared to vehicle control
[10] = 10 μM, third screening of 25 hit compounds (Table S2), compared to vehicle control
[11] = Homo sapiens, 72 h, 0.01 μM (first column so headed), secondary screening of 87 hit compounds (Table S1), compared to vehicle control, read-out: Invasion rates (%) of each drug’s multiple concentrations
[12] = Homo sapiens, 72 h, 0.01 μM (first column so headed), third screening of 25 hit compounds (Table S2), compared to vehicle control, read-out: Invasion rates (%) of each drug’s multiple concentrations
[13] = Homo sapiens, 72 h, 0.01 μM (second column so headed), secondary screening of 87 hit compounds (Table S1), compared to vehicle control, read-out: Invasion rates (%) of each drug’s multiple concentrations
[14] = Homo sapiens, 72 h, 0.01 μM (second column so headed), third screening of 25 hit compounds (Table S2), compared to vehicle control, read-out: Invasion rates (%) of each drug’s multiple concentrations
[15] = Homo sapiens, 72 h, 0.1 μM, secondary screening of 87 hit compounds (Table S1), compared to vehicle control, read-out: Invasion rates (%) of each drug’s multiple concentrations
[16] = Homo sapiens, 72 h, 0.1 μM, third screening of 25 hit compounds (Table S2), compared to vehicle control, read-out: Invasion rates (%) of each drug’s multiple concentrations
[17] = Homo sapiens, 72 h, 1 μM, secondary screening of 87 hit compounds (Table S1), compared to vehicle control, read-out: Invasion rates (%) of each drug’s multiple concentrations
[18] = Homo sapiens, 72 h, 1 μM, third screening of 25 hit compounds (Table S2), compared to vehicle control, read-out: Invasion rates (%) of each drug’s multiple concentrations
[19] = Homo sapiens, 72 h, 10 μM, secondary screening of 87 hit compounds (Table S1), compared to vehicle control, read-out: Invasion rates (%) of each drug’s multiple concentrations
[20] = Homo sapiens, 72 h, 10 μM, third screening of 25 hit compounds (Table S2), compared to vehicle control, read-out: Invasion rates (%) of each drug’s multiple concentrations

SMILES | activity at 0.01 µM [11] [%] | activity at 0.01 µM [13] [%] | activity at 0.1 µM [15] [%] | activity at 1 µM [17] [%] | activity at 10 µM [19] [%] | further results
CC(=O)[C@]1(O)Cc2c(O)c3c(c(O)c2[C@@H](O[C@H]2C[C@H](N)[C@H](O)[C@H](C)O2)C1)C(=O)c1ccccc1C3=O.Cl [Idarubicin (hydrochloride)] |  |  |  |  |  | Invasion rates (%) of each drug’s multiple concentrations (μM) [1]: 80.06%; Invasion rates (%) of each drug’s multiple concentrations (μM) [2]: 95.32%; Invasion rates (%) of each drug’s multiple concentrations (μM) [3]: 88.67%; Invasion rates (%) of each drug’s multiple concentrations (μM) [4]: 98.46%; Invasion rates (%) of each drug’s multiple concentrations (μM) [5]: 83.45%; Invasion rates (%) of each drug’s multiple concentrations (μM) [6]: 100.06%; Invasion rates (%) of each drug’s multiple concentrations (μM) [7]: 7.74%; Invasion rates (%) of each drug’s multiple concentrations (μM) [8]: 1.25%; Invasion rates (%) of each drug’s multiple concentrations (μM) [9]: 3.85%; Invasion rates (%) of each drug’s multiple concentrations (μM) [10]: 1.34%
CC(C)C[C@H](NC(=O)CNC(=O)c1cc(Cl)ccc1Cl)B1OC(=O)C(CC(=O)O)(CC(=O)O)O1 [Ixazomib citrate] | 69.8 | 81.3 | 26.9 | 1.95 | 1.55 | activity at 0.01 µM [12]: 100%; activity at 0.01 µM [14]: 96.7%; activity at 0.1 µM [16]: 91.4%; activity at 1 µM [18]: 54.2%; activity at 10 µM [20]: 0.4%
CC(C)C[C@H](NC(=O)CNC(=O)c1cc(Cl)ccc1Cl)B(O)O [Ixazomib] | 35.2 | 76.3 | 22.3 | 3.86 | 1.01 | activity at 0.01 µM [12]: 83.1%; activity at 0.01 µM [14]: 95.7%; activity at 0.1 µM [16]: 76.1%; activity at 1 µM [18]: 0.53%; activity at 10 µM [20]: 0.3%
CO[C@@H]1[C@@H](O[C@@H]2O[C@H](C)[C@@H](O[C@H]3C[C@@](C)(O)[C@@H](OC(=O)CC(C)C)[C@H](C)O3)[C@H](N(C)C)[C@H]2O)[C@@H](CC=O)C[C@@H](C)[C@@H](O)/C=C/C=C/C[C@@H](C)OC(=O)C[C@H]1OC(C)=O [Josamycin] | 88.6 | 86.9 | 86.7 | 78 | 15.5 | 
CC(=O)NC[C@H]1CN(c2ccc(N3CCOCC3)c(F)c2)C(=O)O1 [Linezolid] | 94.4 | 96.6 | 80 | 64.5 | 3.51 | 
N[C@@H](Cc1cc(I)c(Oc2ccc(O)c(I)c2)c(I)c1)C(=O)O [Liothyronine] | 93.5 | 97.4 | 93.3 | 92.5 | 50.6 | 
COc1ccc(CN(CCN(C)C)c2ccccn2)cc1 [Mepyramine maleate] | 101 | 98.3 | 99.1 | 97.9 | 48.9 | 
C=C1c2cccc(O)c2C(O)=C2C(=O)[C@]3(O)C(O)=C(C(N)=O)C(=O)[C@@H](N(C)C)[C@@H]3[C@@H](O)[C@H]12.Cl [Methacycline (hydrochloride)] |  |  |  |  |  | Invasion rates (%) of each drug’s multiple concentrations (μM) [1]: 68.21%; Invasion rates (%) of each drug’s multiple concentrations (μM) [2]: 93.06%; Invasion rates (%) of each drug’s multiple concentrations (μM) [3]: 75.44%; Invasion rates (%) of each drug’s multiple concentrations (μM) [4]: 92.10%; Invasion rates (%) of each drug’s multiple concentrations (μM) [5]: 57.31%; Invasion rates (%) of each drug’s multiple concentrations (μM) [6]: 89.39%; Invasion rates (%) of each drug’s multiple concentrations (μM) [7]: 4.98%; Invasion rates (%) of each drug’s multiple concentrations (μM) [8]: 5.12%; Invasion rates (%) of each drug’s multiple concentrations (μM) [9]: 3.07%; Invasion rates (%) of each drug’s multiple concentrations (μM) [10]: 2.20%
Cc1ncc([N+](=O)[O-])n1CCO [Metronidazole] | 93.6 | 93.9 | 94.1 | 85.7 | 10.1 | 
CO[C@@H]1[C@H](N(C)C(=O)c2ccccc2)C[C@H]2O[C@]1(C)n1c3ccccc3c3c4c(c5c6ccccc6n2c5c31)C(=O)NC4 [Midostaurin] | 97.5 | 98.7 | 96 | 95.8 | 34.3 | 
CN(C)c1ccc(O)c2c1C[C@H]1C[C@H]3[C@H](N(C)C)C(=O)C(C(N)=O)=C(O)[C@@]3(O)C(=O)C1=C2O.Cl [Minocycline (hydrochloride)] |  |  |  |  |  | Invasion rates (%) of each drug’s multiple concentrations (μM) [1]: 87.07%; Invasion rates (%) of each drug’s multiple concentrations (μM) [3]: 98.27%; Invasion rates (%) of each drug’s multiple concentrations (μM) [5]: 80.93%; Invasion rates (%) of each drug’s multiple concentrations (μM) [7]: 62.17%; Invasion rates (%) of each drug’s multiple concentrations (μM) [9]: 5.40%
CO[C@@]12[C@H](COC(N)=O)C3=C(C(=O)C(C)=C(N)C3=O)N1C[C@@H]1N[C@@H]12 [Mitomycin C] | 4.12 | 39.7 | 4.9 | 3.56 | 2.5 | activity at 0.01 µM [12]: 41.6%; activity at 0.01 µM [14]: 93.2%; activity at 0.1 µM [16]: 2.22%; activity at 1 µM [18]: 1.49%; activity at 10 µM [20]: 0.24%; inhibition at 0.1 µM (Homo sapiens, at 0.1 μM, read-out: inhibition of cell invasion): > 50%
Cl.Cl.O=C1c2c(O)ccc(O)c2C(=O)c2c(NCCNCCO)ccc(NCCNCCO)c21 [Mitoxantrone (dihydrochloride)] |  |  |  |  |  | Invasion rates (%) of each drug’s multiple concentrations (μM) [1]: 88.48%; Invasion rates (%) of each drug’s multiple concentrations (μM) [3]: 95.77%; Invasion rates (%) of each drug’s multiple concentrations (μM) [5]: 89.03%; Invasion rates (%) of each drug’s multiple concentrations (μM) [7]: 87.29%; Invasion rates (%) of each drug’s multiple concentrations (μM) [9]: 31.96%
Cc1ncc([N+](=O)[O-])n1CC(O)CN1CCOCC1 (stereo not shown) [Morinidazole] | 83.3 | 89.7 | 75.5 | 60 | 4 | 
C/C(=C\C(=O)OCCCCCCCCC(=O)O)C[C@@H]1OC[C@H](C[C@@H]2O[C@H]2[C@@H](C)[C@H](C)O)[C@@H](O)[C@H]1O [Mupirocin] | 95.2 | 98 | 95.3 | 80 | 5.95 | 
CC1CCc2c(N3CCC(O)CC3)c(F)cc3c(=O)c(C(=O)O)cn1c23 (stereo not shown) [Nadifloxacin] | 102 | 104 | 101 | 100 | 1.03 | 
O=C(N/N=C/c1ccc([N+](=O)[O-])o1)c1ccc(O)cc1 [Nifuroxazide] | 68.1 | 86.4 | 50.2 | 9.13 | 2.06 | activity at 0.01 µM [12]: 97.2%; activity at 0.01 µM [14]: 94.3%; activity at 0.1 µM [16]: 86.5%; activity at 1 µM [18]: 7.31%; activity at 10 µM [20]: 1.51%
CC1CS(=O)(=O)CCN1/N=C/c1ccc([N+](=O)[O-])o1 (stereo not shown) [Nifurtimox] | 96.2 | 96.2 | 78.6 | 32.4 | 1.95 | activity at 0.01 µM [12]: 97%; activity at 0.01 µM [14]: 97.5%; activity at 0.1 µM [16]: 93.5%; activity at 1 µM [18]: 5.05%; activity at 10 µM [20]: 0.53%
COC(=O)c1ccc2c(c1)NC(=O)/C2=C(\Nc1ccc(N(C)C(=O)CN2CCN(C)CC2)cc1)c1ccccc1 [Nintedanib] | 98.1 | 98.3 | 97.5 | 95.2 | 36.2 | 
NC(=O)N/N=C/c1ccc([N+](=O)[O-])o1 [Nitrofurazone] | 94.8 |  | 80.4 | 70.7 | 6.3 | activity (Homo sapiens, 72 h, secondary screening of 87 hit compounds (Table S1), compared to vehicle control, read-out: Invasion rates (%) of each drug’s multiple concentrations): 98.8%
